Experimental data from article PMC4383039 (Science translational medicine, 2015).
≈ marks a conversion by molar mass, not a printed value. Like-named read-outs stand apart in the source and are kept apart here. Marks after values point to notes of the source that are not given here.

Legend:
[1] = target: InhA with cofactor (NADH or NAD+) (Mycobacterium tuberculosis, UniProt P9WGR1); format: binding
InhA [2] = target: T1, InhA (Mycobacterium tuberculosis, UniProt P9WGR1); assay: biochemical
InhA-NADH complex = InhA-NADH complex (Mycobacterium tuberculosis, UniProt P9WGR1); assay: biochemical; format: binding
Chain of InhA-NADH complex (P9WGR1 whole entry, looked up, one chain of several): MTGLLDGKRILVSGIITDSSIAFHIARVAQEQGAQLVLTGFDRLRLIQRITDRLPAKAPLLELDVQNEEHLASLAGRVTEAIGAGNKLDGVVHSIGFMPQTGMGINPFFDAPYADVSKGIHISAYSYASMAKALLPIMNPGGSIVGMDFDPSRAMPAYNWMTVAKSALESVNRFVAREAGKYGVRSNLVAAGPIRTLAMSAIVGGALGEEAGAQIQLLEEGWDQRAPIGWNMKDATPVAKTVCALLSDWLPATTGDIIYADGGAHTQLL

mycolates = format: cell-based, Mycobacterium tuberculosis
Mtb H37Rv [3] = assay: microbe, parasite or virus in culture; format: cell-based, Mycobacterium tuberculosis; conditions: for MIC50: Mycobacterium tuberculosis, H37RV
[4] = target: apo-InhA, InhA-NAD+ complex (Mycobacterium tuberculosis, UniProt P9WGR1); format: binding
Chain of apo-InhA, InhA-NAD+ complex (P9WGR1 whole entry, looked up, one chain of several): as above

Mtb H37Rv [5] = conditions: cited from earlier work
InhA [6] = target: T1, InhA; conditions: read-out: InhA IC50; cited from earlier work
Mtb H37Rv [7] = tested on: Mtb H37Rv; parameters: species or system BALB/c mice; conditions: mouse, in vivo
in vitro replicating Mtb = format: cell-based, Mycobacterium tuberculosis

Chain of InhA with cofactor (NADH or NAD+) (P9WGR1 whole entry, looked up): as the sequence (P9WGR1 whole entry, looked up, one chain of several) above
T1 sequence (P9WGR1 whole entry, looked up): as the sequence (P9WGR1 whole entry, looked up, one chain of several) above

Question: For `CC(C)Cc1cc(O)c(-c2ccccc2)c(=O)[nH]1` [NITD-529, 4-hydroxy-6-isobutyl-3-phenylpyridin-2(1H)-one], which “Thermaflor assay Tm, E-NAD+-I” value [1] is on record?
Answer: Its value is 50.3 °C.

Question: And the “Thermaflor assay Tm, E-NADH-I” value [1]?
Answer: The value was 54.7 °C.

Question: And the “Thermaflor assay ΔTm” value [1]?
Answer: The value was 4.4 °C.

Question: And the IC50 (InhA [2])?
Answer: Its IC50 is 9.6 ± 0.7 µM.

Question: And the “ITC (+NADH) N” value (InhA-NADH complex)?
Answer: The value was 0.97 ± 0.23.

Question: What about the Kd (InhA-NADH complex) of the same compound?
Answer: The Kd was 25 ± 7 µM.

Question: And the “ITC (+NADH) ΔH” value (InhA-NADH complex; 25°C)?
Answer: The value was 13.1 ± 4.202 kcal/mol.

Question: And the “ITC (+NADH) ΔS” value (InhA-NADH complex; 25°C)?
Answer: Its value is -0.0229 kcal/mol.

Question: What about the effect on mycolates (mycolates) of the same compound?
Answer: The effect on mycolates was “dose-dependent inhibition of mycolates”.

Question: And the “Mtb MIC50” value (Mtb H37Rv [3])?
Answer: Its value is 1.54 µM.

Question: And the MIC50 (Mtb H37Rv [3]; 120 h, read-out: Mtb MIC50)?
Answer: The MIC50 was 1.5 µM (≈ 0.365 µg/mL).

Question: And the MIC50 (Mtb H37Rv [3]; read-out: Compound MIC50)?
Answer: Its MIC50 is 1.54 µM (≈ 0.375 µg/mL).

Question: What about the “ITC binding to InhA” value [4] of the same compound?
Answer: Its value is “no binding was observed”.

Question: Which MIC50 (Mtb H37Rv [5]) does the source give for `O=[N+]([O-])c1cn2c(n1)OC[C@@H](OCc1ccc(OC(F)(F)F)cc1)C2` [PA-824] here?
Answer: Its MIC50 is 0.4 µM (≈ 0.144 µg/mL).

Question: What does the source list for `c1ccc(Oc2ccccc2)cc1` [PT70]?
Answer: Thermaflor assay Tm, E-NAD+-I [1]: 66.7 °C; Thermaflor assay Tm, E-NADH-I [1]: 60.1 °C; Thermaflor assay ΔTm [1]: -6.6 °C; IC50 (InhA [6]): < 0.05 µM; Mtb MIC50 (Mtb H37Rv [5]): 11 ^a μM

Question: With `COc1nc2ccc(Br)cc2cc1[C@@H](c1ccccc1)[C@@](O)(CCN(C)C)c1cccc2ccccc12` [bedaquiline] as the compound, how does the MIC50 (Mtb H37Rv [5]) read?
Answer: The MIC50 was 0.05 µM (≈ 0.0278 µg/mL).

Question: For `CCc1cc(C(N)=S)ccn1` [ethionamide], which MIC50 (Mtb H37Rv [3]; read-out: Compound MIC50) is on record?
Answer: Its MIC50 is 1.66 µM (≈ 0.276 µg/mL).

Question: With `NNC(=O)c1ccncc1` [isoniazid] as the compound, how does the “efficacy compared with reference drugs / NITD-916” value (Mtb H37Rv [7]) read?
Answer: Its value is “significantly more potent than NITD-916”.

Question: And the “concentration showing rapid killing (in vitro cidal-activity profile)” value (in vitro replicating Mtb)?
Answer: The value was 0.5 µM.

Question: What about the MIC50 (Mtb H37Rv [5]) of the same compound?
Answer: The MIC50 was 0.33 µM (≈ 0.0453 µg/mL).

Question: And the MIC50 (Mtb H37Rv [3]; read-out: Compound MIC50)?
Answer: Its MIC50 is 0.25 µM (≈ 0.0343 µg/mL).

Question: Which “efficacy compared with reference drugs / NITD-916” value (Mtb H37Rv [7]) does the source give for `CO[C@H]1/C=C/O[C@@]2(C)Oc3c(C)c(O)c4c(O)c(c(/C=N/N5CCN(C)CC5)c(O)c4c3C2=O)NC(=O)/C(C)=C\C=C\[C@H](C)[C@H](O)[C@@H](C)[C@@H](O)[C@@H](C)[C@H](OC(C)=O)[C@@H]1C` [rifampicin] here?
Answer: The value was “significantly more potent than NITD-916”.

Question: With `[H]/N=C(/N)N[C@H]1[C@H](O)[C@@H](O)[C@H](O[C@@H]2O[C@@H](C)[C@](O)(C=O)[C@H]2O[C@@H]2O[C@@H](CO)[C@H](O)[C@@H](O)[C@@H]2NC)[C@@H](N/C(N)=N\[H])[C@@H]1O` [streptomycin] as the compound, how does the MIC50 (Mtb H37Rv [3]; read-out: Compound MIC50) read?
Answer: Its MIC50 is 0.08 µM (≈ 0.0465 µg/mL).
